The values that follow come from patent publication US8119627B2 (Sterix Limited, priority 2005, dated 2012).

Where a name gives a salt, the structure may show the parent alone.

Tested on in the first data set: not given
Experiment: not given
Conditions: not given
In the case of `CC(=O)N1CCC(C(=O)Nc2ccccc2Oc2ccc(Cl)cc2)CC1` [STX1617, 1-Acetylpiperidine-4-carboxylic acid [2-(4-chlorophenoxy)phenyl]amide], the melting point is 195 to 196 °C.
For `CC(=O)N1CCC(Nc2ccccc2Oc2ccc(Cl)cc2Cl)CC1` [STX1616, 1-{4-[2-(2,4-Dichlorophenoxy)phenylamino]piperidin-1-yl}ethanone], the melting point lay in the range of 145 to 146 °C.
For the molecule `O=C(Nc1ccccc1Oc1ccc(Cl)cc1)C1CCN(C(=O)c2ccccc2)CC1` [STX1615, 1-Benzoylpiperidine-4-carboxylic acid [2-(4-chlorophenoxy)phenyl]amide], the melting point lay in the range of 158 to 160 °C.
The molecule `CC(C)C(=O)N1CCC(NC(=O)c2ccccc2Oc2ccc(Cl)cc2Cl)CC1` yielded a melting point of 51 to 54 °C.
Still for that read-out and setting: the result for `O=C(NC1CCN(C(=O)c2ccccc2)CC1)c1ccccc1Oc1ccc(Cl)cc1Cl` reads 63 to 66 °C; that for `CC(=O)N1CCC(C(=O)Nc2ccccc2Oc2ccc(Cl)cc2Cl)CC1` [STX1614, 1-Acetylpiperidine-4-carboxylic acid [2-(2,4-dichlorophenoxy)phenyl]amide], 194 to 196 °C.
Turning to `O=C(Nc1ccccc1Oc1ccc(Cl)cc1Cl)C1CCN(C(=O)c2ccccc2)CC1` [STX1613, 1-Benzoylpiperidine-4-carboxylic acid [2-(2,4-dichloro-phenoxy)phenyl]amide], the melting point fell in the range of 176 to 177 °C.
Molecule `O=C(Nc1ccccc1Oc1ccc(Cl)cc1Cl)C1CCN(S(=O)(=O)c2cc(Cl)ccc2Cl)CC1` had a melting point of 194 to 196 °C.

The next data set addresses T1, human 17β-HSD3 (Homo sapiens, UniProt P37058).
T1 construct: expressed in transfected cells; host or cells: 293-EBNA cells (human), stably transfected
T1 sequence (P37058 1-310): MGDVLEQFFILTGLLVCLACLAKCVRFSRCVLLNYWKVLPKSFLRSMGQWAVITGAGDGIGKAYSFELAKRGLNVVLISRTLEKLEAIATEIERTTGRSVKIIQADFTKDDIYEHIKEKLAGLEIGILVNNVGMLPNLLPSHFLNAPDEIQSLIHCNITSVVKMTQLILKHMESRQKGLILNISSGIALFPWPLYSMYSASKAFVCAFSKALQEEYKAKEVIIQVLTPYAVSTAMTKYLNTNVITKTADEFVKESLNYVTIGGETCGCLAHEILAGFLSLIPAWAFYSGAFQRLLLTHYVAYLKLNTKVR
The data set can be described thus: 17β-Hydroxysteroid dehydrogenase Type 3 activity in stably transfected 293-EBNA cells (3H-androstenedione to testosterone conversion). As to conditions: 10 μM test compound; 293-EBNA cells stably transfected with 17β-HSD Type 3; 2-3 nM 3H-androstenedione; 2 hours. Format: cell-based. How it is done: Assay Protocol—17β-Hydroxysteroid Dehydrogenase Type 3 Activity in the Presence of Regulatory Agents
293-EBNA cells stably transfected with 17β-HSD Type 3 were plated at 50,000 cells/well in 24 well plates in complete growth medium. After 48 hours 2-3 nM ^3H-Androstenedione in assay medium (500 ml MEME medium with 5 ml 100× Pen/Strep, 5 ml 100×L-Glutamine, 5 ml 100×NEAA and 5 ml 7.5% sodium bicarbonate solution) was added with or without test compound at 1.5 ml/well (triplicate), and the cells incubated at 37° C.
Two hours later 1 ml medium was removed from each well and placed in a 125×16 mm glass test tube containing 25 μl of recovery solution (5000 dpm ^14C-Testosterone and 25 μg unlabelled Testosterone). Ether (4 ml) was added and the tubes vortexed at high speed for 2×30 sec. After the samples had settled into two phases they were snap-frozen in a dry ice/methanol bath. The upper organic phase was decanted into 75×12 mm tubes and evaporated to dryness under an airstream using a sample concentrator (TECHNE) at 40° C. The samples were resuspended in ether (8 drops, then a further 3), spotted onto silica 60 F254 20 cm×20 cm TLC plates, and separated using a 4:1 v/v dichloromethane:ethyl acetate mobile phase.
After drying the plates, the major spots were marked under a UV lamp, cut out, and placed in individual scintillation vials containing 0.5 ml methanol. These were then shaken lightly and allowed to stand for 15 min before adding 10 ml of EcoScint A (scintillation fluid) to each tube along with 0.5 ml assay medium, and counted in a scintillation spectrometer (Beckman) using a program for dual [^3H/^14C] isotopes. The number of cells/well was then counted using a Coulter counter (Beckman).
The inhibitory activity of the test compounds is then assessed by calculating the amount of product formed correcting for crossover between isotope counts, recovery, dilution and non-enzymatic degradation (fmol/hr/million cells) with and without inhibitor, (% inhibition).
Compounds were tested at 10 μM for inhibition of human 17β-HSD3 with typically […] human 293-EBNA cells/well.
On to `CC(=O)N1CCC(Nc2ccccc2Oc2ccc(Cl)cc2)CC1C(C)C` (stereo not shown) [STX2523, 1-(4-(2-(4-Chlorophenoxy)phenylamino)-2-iso-propylpiperidin-1-yl)ethanone], for which the inhibition at 10 µM is over 60%.
Molecule `O=C(c1ccccc1)N1CCC(Nc2ccccc2Oc2ccc(Cl)cc2)CC1` returned an inhibition at 10 µM of over 60%.
Still for that read-out and setting: with `CC(=O)N1CCC(C(=O)Nc2ccccc2Oc2ccc(Cl)cc2)CC1` [STX1617, 1-Acetylpiperidine-4-carboxylic acid [2-(4-chlorophenoxy)phenyl]amide] the figure was 20 to 60%.
Take `O=C(Nc1ccccc1Oc1cc(Cl)cc(Cl)c1)C1CCN(C(=O)c2ccccc2)CC1` [STX1605, 1-Benzoyl-piperidine-4-carboxylic acid [2-(3,5-dichloro-phenoxy)-phenyl]-amide]: the inhibition at 10 µM was 20 to 60%.
For the molecule `CC(=O)N1CCC(Nc2ccccc2Oc2ccc(Cl)cc2)c2ccccc21` (stereo not shown) [STX2138], the inhibition at 10 µM fell in the range of 20 to 60%.
The same measure, in the same setting: the result for `CC(=O)N1CCC(C(=O)Nc2ccccc2Oc2ccc(OC(F)(F)F)cc2)CC1` [STX1624, 1-Acetyl-piperidine-4-carboxylic acid [2-(4-trifluoromethoxy-phenoxy)-phenyl]-amide] reads 20 to 60%.
The same measure, in the same setting: the result for `CC(=O)N1CCC(Nc2ccccc2Oc2ccc(Cl)cc2Cl)CC1` [STX1616, 1-{4-[2-(2,4-Dichlorophenoxy)phenylamino]piperidin-1-yl}ethanone] reads over 60%; that for `CC(=O)N1CCCC(Nc2ccccc2Oc2ccc(Cl)cc2)c2ccccc21` (stereo not shown) [STX2171, 1-Acetyl-5-[2-(4-Chloro-phenoxy)-phenylamino]-2,3,4,5-tetrahydro-benzo[b]azepine], over 60%.
Same read-out and setting: the result for `CC(C)(C)C(=O)N1CCC(Nc2ccccc2Oc2ccc(Cl)cc2)CC1` [STX1631, 1-{4-[2-(4-chlorophenoxy)phenylamino]-piperidin-1-yl}-2,2-dimethylpropan-1-one] reads 20 to 60%; that for `CC(=O)N1CCC(Nc2ccccc2-c2ccccc2Oc2ccccc2)CC1` [STX2048, 1-[4-(2′-Phenoxybiphenyl-2-ylamino)piperidin-1-yl]ethanone hydrochloride], 20 to 60%; that for `O=C(c1ccccc1)N1CCC(Nc2ccccc2Oc2ccc(Cl)cc2Cl)CC1` [STX1623, {4-[2-(2,4-Dichlorophenoxy)phenylamino]piperidin-1-yl}phenylmethanone], over 60%.
Take `CC(=O)N1CCC(Nc2ccccc2Oc2ccc(Cl)cc2)CC1` [STX1629, 1-{4-[2-(4-chlorophenoxy)phenylamino]-piperidin-1-yl}-ethanone]: the inhibition at 10 µM was over 60%.
In the case of `CC(=O)N1CCC(C(=O)Nc2ccccc2Oc2ccc(C(F)(F)F)cc2)CC1` [STX1606, 1-Acetyl-piperidine-4-carboxylic acid [2-(4-trifluoromethyl-phenoxy)-phenyl]-amide], the inhibition at 10 µM was in the range of 20 to 60%.
Take `CC(=O)N1CC(N(Cc2ccccc2Oc2ccc(Cl)cc2)C(C)=O)Cc2ccccc21` (stereo not shown) [STX2525, N-(1-Acetyl-1,2,3,4-tetrahydro-quinolin-3-yl)-N-[2-(4-chloro-phenoxy)-benzyl]-acetamide]: the inhibition at 10 µM fell in the range of 20 to 60%.
With `CC(=O)N1CCC(Nc2ccccc2Oc2ccc(Cl)cc2)CC1c1ccccc1` (stereo not shown) [STX2419, 1-(4-(2-(4-Chlorophenoxy)phenylamino)-2-phenylpiperidin-1-yl)ethanone], the inhibition at 10 µM is 20 to 60%.
Take `O=C(Nc1ccccc1Oc1ccc(Cl)cc1)C1CCN(C(=O)c2ccccc2)CC1` [STX1615, 1-Benzoylpiperidine-4-carboxylic acid [2-(4-chlorophenoxy)phenyl]amide]: the inhibition at 10 µM is under 20%.
`CC(=O)N1CCCC(Nc2ccccc2Oc2ccc(Cl)cc2)CC1` (stereo not shown) [STX1762, 1-(4-(2-(4-chlorophenoxy)phenylamino)azepan-1-yl)ethanone] gave an inhibition at 10 µM of over 60%.
Regarding `CC(=O)N1CCC(C(=O)Nc2ccccc2Oc2cc(Cl)cc(Cl)c2)CC1` [STX1604, 1-Acetyl-piperidine-4-carboxylic acid [2-(3,5-dichloro-phenoxy)-phenyl]-amide], the inhibition at 10 µM was 20 to 60%.
Molecule `O=C(Nc1ccccc1Oc1ccc(C(F)(F)F)cc1)C1CCN(C(=O)c2ccccc2)CC1` [STX1607, 1-Benzoyl-piperidine-4-carboxylic acid [2-(4-trifluoromethyl-phenoxy)-phenyl]-amide] came in with an inhibition at 10 µM of 20 to 60%.
`CC(=O)N1CCC(C(=O)Nc2ccccc2Oc2ccc(Cl)cc2Cl)CC1` [STX1614, 1-Acetylpiperidine-4-carboxylic acid [2-(2,4-dichlorophenoxy)phenyl]amide]: the inhibition at 10 µM was over 60%.
The molecule `CC(=O)NCCC(=O)Nc1ccccc1Oc1ccc(Cl)cc1` [STX1859, N-[2-(4-chlorophenoxy)phenyl]-3-acetamidopropanamide] returned an inhibition at 10 µM of under 20%.
`O=C(Nc1ccccc1Oc1ccc(Cl)cc1Cl)C1CCN(C(=O)c2ccccc2)CC1` [STX1613, 1-Benzoylpiperidine-4-carboxylic acid [2-(2,4-dichloro-phenoxy)phenyl]amide] gave an inhibition at 10 µM of 20 to 60%.
Consider `CC(=O)N1CCC(Nc2ccccc2-c2ccc(Cl)cc2)CC1` [STX2044, 1-[4-(4′-Chlorobiphenyl-2-ylamino)piperidin-1-yl]ethanone], for which the inhibition at 10 µM lay in the range of 20 to 60%.
`CC(=O)NC(CC(=O)Nc1ccccc1Oc1ccc(Cl)cc1)c1ccccc1` (stereo not shown) [STX1858, N-[2-(4-chlorophenoxy)phenyl]-3-acetamido-3-phenylpropanamide]: the inhibition at 10 µM is under 20%.
With `O=C(Nc1ccccc1Oc1ccc(OC(F)(F)F)cc1)C1CCN(C(=O)c2ccccc2)CC1` [STX1625, 1-Benzoyl-piperidine-4-carboxylic acid [2-(4-trifluoromethoxy-phenoxy)-phenyl]-amide], the inhibition at 10 µM was 20 to 60%.
The same measure, in the same setting: with `O=C(c1ccco1)N1CCC(Nc2ccccc2Oc2ccc(Cl)cc2Cl)CC1` [STX1779, {4-[2-(2,4-Dichloro-phenoxy)-phenylamino]-piperidin-1-yl}-furan-2-yl-methanone] the figure was 20 to 60%.

Broadly, the melting point is the temperature of the solid-liquid transition. Usually inhibition stands for the share of the control response that was lost under treatment. Read a high inhibition as a strong effect.
